Square brackets hold non-standard residues; d marks the D form. Ends that are not written are not given here.
Columns and labels:
[1] = tested on: C57BL/6J ob/ob mice; test: Intraperitoneal glucose tolerance test (IPGTT) after chronic administration; assay type: in vivo, mouse
Procedure: An intraperitoneal glucose tolerance test was conducted to determine whether the clearance of a glucose load was enhanced. […], five receiving saline and five receiving peptide 3. At 14 days after chronic administration of saline or peptide 3, mice were fasted for 4 hours, then anaesthetized and eye-bled for day 14 plasma metabolite analysis. Half of each saline or peptide 3 treatment group was given a single intraperitoneal injection of glucose (1 g/kg dissolved in saline), and the other half saline (equivalent dose). Mice were eye-bled at 30, 60 and 120 minutes after glucose administration, and blood glucose levels were determined.

[2] = tested on: Zucker (fa/fa) rat hemidiaphragm muscle; test: In vitro glycogen synthesis (glucose incorporation into glycogen) in hemidiaphragm muscle with exogenous insulin; assay type: cell-based
Procedure: In vitro insulin-potentiating effects of the synthetic peptide analogues were assessed by measuring the rates of exogenous glucose incorporation into glycogen in rat hemidiaphragms (Lim et al, 1992). Hemidiaphragms from overnight-fasted Zucker fatty(fa/fa) female rats were dissected, and divided into segments of approximate 35-50 mg each. Tissues from the same rat were used for all groups. The tissue was incubated in 2 ml of Krebs-Ringer bicarbonate (KRB) buffer (pH 7.4) containing [^14C]glucose (5.5 mM, final specific activity 0.05 mCi/mmol) under an atmosphere of 95% 02-5% CO2 at 37° C. for 1.5 hr. After incubation, tissues were removed, washed with cold buffer and blotted. Tissues were digested, the muscle glycogen was precipitated and the ^14C-radioactivity was counted in a Wallac 1410 liquid scintillation counter. The biological activity of peptide analogues was measured as the rate of mmol glucose incorporation into muscle glycogen/g tissue/hr.
The sensitivity of hemidiaphragm muscle tissue to insulin (0.1-100 mU/ml) on glycogen synthesis was first analyzed. The dose response curves for peptide analogues on the insulin-potentiating effect to glycogen synthesis were then measured using cumulative increasing concentrations (10^−3 10 μmol/ml) of peptides in the presence of insulin (1 mU/ml). The biological activity of each peptide analogue was measured as the rate of glucose incorporation into muscle glycogen (μmol/g tissue/hr), and represented by the mean±SEM from eight determinations.
To determine the insulin-potentiating effect of the peptide analogues, the rates of incorporation of glucose into muscle glycogen were measured. The rates of glycogen synthesis (μmol/g tissue/hr) were 0.52±0.05, 0.60±0.04, 1.27±0.06 and 1.52±0.07 inresponse to 0.33, 1, 3.33 and 10 mU/ml insulin respectively, as shown in FIG. 1.
The insulin-potentiating effect of the peptide analogues was then observed by studying their dose response. curves for glucose incorporation into glycogen in the presence of 1 mU/ml exogenous insulin. The effects of peptides 1, 3, 4, 6, 7, 8 and 10 were evident at doses higher than 0.01 μmol/ml, and continued to increase with increasing peptide concentration to 1 μmol/ml, as shown in FIGS. 2A and 2B.
The activity of each analogue was assessed by in vitro measurement of glycogen synthesis in muscle, as described above.

[3] = tested on: C57BL/6J ob/ob mice; test: Plasma insulin radioimmunoassay after chronic administration; assay type: in vivo, mouse; conditions: after 14 days treatment
Procedure: (§1) Mice selected for this experiment were initially fasted for 4 hours, then anaesthetized with a single injection of sodium pentobarbitone (35 mg/kg). A blood sample was collected from each mouse by eye-bleed for the assessment of plasma glucose and insulin levels (day 0). Collected blood samples were stored at −20° C. until analysis was performed. A single Alzet mini-pump (#1002, Alzet, USA) containing either sterile saline (100 μl; n=14) or peptide 3 (20 μmol/kg dissolved in 100 μl saline; n=14) was inserted under the skin between the scapula of the mice. The incision was clamped and disinfected using iodine. The pumps were left for 14 days, and 5 body-weight, and food measurements were recorded during this period, at days 0, 4, 7, 10 and 14. Blood samples were collected on day 0 and 14 days post-saline (n=5) or peptide 3 (n=4) administration for plasma glucose analysis. The results reported below are expresses as mean +/− standard error. (a) Plasma insulin Plasma insulin levels were quantitatively determined in ob/ob mice, using an insulin radioimmunoassay kit (Linco Research Inc. USA) according to the manufacturer's instructions.

[4] = tested on: adipose tissue; test: Ex vivo glucose transport assay in adipose tissue of chronically treated mice; assay type: cell-based, mouse; conditions: after 14 days treatment
Procedure: (c) Glucose transport assay Glucose transport in adipose tissue extracted from saline-treated and chronically peptide 3-treated mice was analyzed by an ex vivo glucose uptake assay. Adipose tissues was harvested from mice which had received saline (n=5) or peptide 3 (n=4) in the IPGTT, and used for a glucose transport assay. Mice were sacrificed by a lethal injection of pentabarbitone to the heart. Epididymal fat from male mice or peritoneal fat from female mice was used. Adipose tissues were rinsed in saline and then sliced into even pieces for weight determination. Tissues were placed in flasks and incubated in 2 ml KRB buffer (pH 7.4) containing D-glucose (10 mM final concentration) with vigorous agitation at 37° C. for 2 h under an atmosphere of carbogen. All samples were then placed on ice to reduce glycolysis. Tissues were removed from flasks, and the remaining solutions were analyzed for glucose concentrations using a glucose analyzer. Glucose uptake by each tissue sample was calculated, and compared to tissue free buffer controls.

[5] = tested on: C57BL/6J ob/ob mice; test: Chronic administration (14 day mini-pump): body weight, food intake, plasma glucose; assay type: in vivo, mouse
Procedure: as §1, with “The effects of chronic administration of peptide 3 in the C57Bl/6J ob/ob diabetic model were evaluated by measurements of a number of parameters, including body weight, food intake, plasma glucose levels, plasma insulin levels, intraperitoneal glucose tolerance test and glucose uptake by adipose tissue (ex vivo). Male and female C57BL/6J ob/ob mice aged 12-15 weeks old were used. Fasting blood glucose levels were determined for all mice 14 days prior to experimentation. Only mice with fasting blood glucose levels >7.0 mmol/l were used in the study. Mice” for “Mice”, “error.” for “error. (a) Plasma insulin Plasma insulin levels were quantitatively determined in ob/ob mice, using an insulin radioimmunoassay kit (Linco Research Inc. USA) according to the manufacturer's instructions.”

[6] = 20 μmol/kg by mini-pump, 14 days

Arg-D-Ala-Phe-Phe-NH2 (R[dA]FF-NH2; N-terminus assumed; SMILES C[C@@H](NC(=O)[C@@H](N)CCCNC(=N)N)C(=O)N[C@@H](Cc1ccccc1)C(=O)N[C@@H](Cc1ccccc1)C(N)=O) [Peptide 3]
increase in plasma glucose after glucose bolus ([1]; 30 min after 1 g/kg glucose i.p.): 115%
reduction of blood glucose compared to saline-treated mice ([1]; 120 min after glucose injection): 47%
lower basal blood glucose level compared to saline-treated mice ([1]; prior to glucose injection, day 14): 46.1%
maximum stimulation of the rate of glycogen synthesis ([2]; 10 μmol/ml peptide, 1 mU/ml insulin): up to 1.44±0.04 mol/g tissue/hr
in vitro glycogen synthesis ([2]; 0.01-1 μmol/ml peptide (p<0.05), FIG. 2A): significantly increased
Activity ([2]; Table 6 (corrected), summary of Table 5): active
plasma insulin level [3]: 17.10 ± 5.99 ng/mL
more glucose transported than adipose tissue from saline-treated mice [4]: 38%
glucose transport by adipose tissue ([4]; 10 mM D-glucose, 2 h, 37° C.): 1.67±0.18 nmol/mg tissue/h
body weight gain vs saline-infused mice [5, 6]: no significant difference
food intake vs saline-infused mice [5, 6]: no significant difference
plasma glucose levels vs saline-infused control mice ([5]; continuous infusion 14 days (P<0.025)): significantly decreased
reduction in plasma glucose levels ([5]; day 0 to day 14, 4 h fasted): 11.60 ± 3.63 mmol/L
